Reference: ChEMBL document CHEMBL3045546, “Synthesis and antimicrobial screening of 4-thiazolidinone and 2-azetidinone derivatives of piperazine” (2013)
Converted amounts (≈) assume the structure as drawn.

Tests used:
Format in all cases: functional
[1] = test system: Staphylococcus epidermidis; assay: Antimicrobial activity against Staphylococcus epidermidis ATCC 12228 assessed as growth inhibition by broth dilution method
[2] = test system: Proteus vulgaris; assay: Antimicrobial activity against Proteus vulgaris ATCC 13315 assessed as growth inhibition by broth dilution method
[3] = test system: Aspergillus flavus; assay: Antimicrobial activity against Aspergillus flavus ATCC 15517 assessed as growth inhibition by broth dilution method
[4] = test system: Aspergillus awamori; assay: Antimicrobial activity against Aspergillus awamori ATCC 22342 assessed as growth inhibition by broth dilution method
[5] = test system: Staphylococcus hominis; assay: Antimicrobial activity against Staphylococcus hominis ATCC 27844 assessed as growth inhibition by broth dilution method
[6] = test system: Alternaria alternata; assay: Antimicrobial activity against Alternaria alternata ATCC 66868 assessed as growth inhibition by broth dilution method
[7] = test system: Aspergillus fumigatus; assay: Antimicrobial activity against Aspergillus fumigatus assessed as growth inhibition by broth dilution method
[8] = test system: Staphylococcus aureus; assay: Antimicrobial activity against Staphylococcus aureus ATCC 25923 assessed as growth inhibition by broth dilution method
[9] = test system: Rhizoctonia solani; assay: Antimicrobial activity against Rhizoctonia solani ATCC 76131 assessed as growth inhibition by broth dilution method
[10] = test system: Bacillus cereus; assay: Antimicrobial activity against Bacillus cereus ATCC 11778 assessed as growth inhibition by broth dilution method
[11] = test system: Bacillus pumilus; assay: Antimicrobial activity against Bacillus pumilus ATCC 14884 assessed as growth inhibition by broth dilution method
[12] = test system: Pseudomonas aeruginosa; assay: Antimicrobial activity against Pseudomonas aeruginosa ATCC 10145 assessed as growth inhibition by broth dilution method
[13] = test system: Trichoderma viride; assay: Antimicrobial activity against Hypocrea rufa ATCC 52440 assessed as growth inhibition by broth dilution method
[14] = test system: Micrococcus luteus; assay: Antimicrobial activity against Micrococcus luteus ATCC 4698 assessed as growth inhibition by broth dilution method
[15] = test system: Trichophyton longifusum; assay: Antimicrobial activity against Trichophyton longifusum ATCC 22397 assessed as growth inhibition by broth dilution method
[16] = test system: Microsporum canis; assay: Antimicrobial activity against Arthroderma otae ATCC 11622 assessed as growth inhibition by broth dilution method
[17] = test system: Klebsiella pneumoniae; assay: Antimicrobial activity against Klebsiella pneumoniae ATCC 13883 assessed as growth inhibition by broth dilution method
[18] = test system: Fusarium solani; assay: Antimicrobial activity against Fusarium solani ATCC 38136 assessed as growth inhibition by broth dilution method
[19] = test system: Proteus mirabilis; assay: Antimicrobial activity against Proteus mirabilis ATCC 49565 assessed as growth inhibition by broth dilution method
[20] = test system: Candida albicans; assay: Antimicrobial activity against Candida albicans ATCC 10231 assessed as growth inhibition by broth dilution method
[21] = test system: Salmonella typhi; assay: Antimicrobial activity against Salmonella enterica subsp. enterica serovar Typhi ATCC 19430 assessed as growth inhibition by broth dilution method
[22] = test system: Aspergillus niger; assay: Antimicrobial activity against Aspergillus niger ATCC 9142 assessed as growth inhibition by broth dilution method
[23] = test system: Bacillus subtilis; assay: Antimicrobial activity against Bacillus subtilis ATCC 6633 assessed as growth inhibition by broth dilution method
[24] = test system: Escherichia coli; assay: Antimicrobial activity against Escherichia coli ATCC 25922 assessed as growth inhibition by broth dilution method

Row | Compound | MIC [1] [mg/L] | MIC [2] [mg/L] | MIC [3] [mg/L] | MIC [4] [mg/L] | MIC [5] [mg/L] | MIC [6] [mg/L] | MIC [7] [mg/L] | MIC [8] [mg/L] | MIC [9] [mg/L] | MIC [10] [mg/L] | MIC [11] [mg/L] | MIC [12] [mg/L] | MIC [13] [mg/L] | MIC [14] [mg/L] | MIC [15] [mg/L] | MIC [16] [mg/L] | MIC [17] [mg/L] | MIC [18] [mg/L] | MIC [19] [mg/L] | MIC [20] [mg/L] | other results
1 | O=C1CSC(c2ccco2)N1CCN1CCNCC1 (stereo not drawn) | 300 (≈ 1070 µM) | 150 (≈ 533 µM) | 150 (≈ 533 µM) | 150 (≈ 533 µM) | 75 (≈ 267 µM) | 300 (≈ 1070 µM) | 150 (≈ 533 µM) | 150 (≈ 533 µM) | 150 (≈ 533 µM) | 150 (≈ 533 µM) | 150 (≈ 533 µM) | 75 (≈ 267 µM) | 150 (≈ 533 µM) | 75 (≈ 267 µM) | 300 (≈ 1070 µM) | 300 (≈ 1070 µM) | 150 (≈ 533 µM) | 300 (≈ 1070 µM) | 150 (≈ 533 µM) | 300 (≈ 1070 µM) | MIC [21]: 75 mg/L (≈ 267 µM); MIC [22]: 300 mg/L (≈ 1070 µM); MIC [23]: 75 mg/L (≈ 267 µM); MIC [24]: 75 mg/L (≈ 267 µM)
2 | O=C(CCl)N1CCN(CCN2C(=O)C(Cl)C2c2ccccc2O)CC1 (stereo not drawn) | 150 (≈ 388 µM) | 75 (≈ 194 µM) | 300 (≈ 777 µM) | 300 (≈ 777 µM) | 150 (≈ 388 µM) | 300 (≈ 777 µM) | 300 (≈ 777 µM) | 75 (≈ 194 µM) | 300 (≈ 777 µM) | 150 (≈ 388 µM) | 75 (≈ 194 µM) | 75 (≈ 194 µM) | 300 (≈ 777 µM) | 75 (≈ 194 µM) | 300 (≈ 777 µM) | 300 (≈ 777 µM) | 150 (≈ 388 µM) | 300 (≈ 777 µM) | 75 (≈ 194 µM) | 300 (≈ 777 µM) | MIC [21]: 75 mg/L (≈ 194 µM); MIC [22]: 300 mg/L (≈ 777 µM); MIC [23]: 150 mg/L (≈ 388 µM); MIC [24]: 150 mg/L (≈ 388 µM)
3 | O=C(CCl)N1CCN(CCN2C(=O)C(Cl)C2c2ccco2)CC1 (stereo not drawn) | 75 (≈ 208 µM) | 75 (≈ 208 µM) | 300 (≈ 833 µM) | 150 (≈ 416 µM) | 75 (≈ 208 µM) | 150 (≈ 416 µM) | 300 (≈ 833 µM) | 150 (≈ 416 µM) | 300 (≈ 833 µM) | 75 (≈ 208 µM) | 75 (≈ 208 µM) | 150 (≈ 416 µM) | 300 (≈ 833 µM) | 150 (≈ 416 µM) | 300 (≈ 833 µM) | 150 (≈ 416 µM) | 75 (≈ 208 µM) | 150 (≈ 416 µM) | 150 (≈ 416 µM) | 300 (≈ 833 µM) | MIC [21]: 150 mg/L (≈ 416 µM); MIC [22]: 150 mg/L (≈ 416 µM); MIC [23]: 150 mg/L (≈ 416 µM); MIC [24]: 75 mg/L (≈ 208 µM)
4 | COc1ccc(C2C(Cl)C(=O)N2CCN2CCN(C(=O)CCl)CC2)cc1O (stereo not drawn) | 9.37 (≈ 22.5 µM) | 9.37 (≈ 22.5 µM) | 18.8 (≈ 45 µM) | 18.8 (≈ 45 µM) | 9.37 (≈ 22.5 µM) | 9.73 (≈ 23.4 µM) | 18.8 (≈ 45 µM) | 9.37 (≈ 22.5 µM) | 18.8 (≈ 45 µM) | 9.37 (≈ 22.5 µM) | 9.37 (≈ 22.5 µM) | 9.37 (≈ 22.5 µM) | 18.8 (≈ 45 µM) | 4.68 (≈ 11.2 µM) | 9.73 (≈ 23.4 µM) | 18.8 (≈ 45 µM) | 9.37 (≈ 22.5 µM) | 18.8 (≈ 45 µM) | 9.37 (≈ 22.5 µM) | 18.8 (≈ 45 µM) | MIC [21]: 4.68 mg/L (≈ 11.2 µM); MIC [22]: 18.8 mg/L (≈ 45 µM); MIC [23]: 4.68 mg/L (≈ 11.2 µM); MIC [24]: 9.37 mg/L (≈ 22.5 µM)
5 | O=C1CSC(c2ccccc2O)N1CCN1CCNCC1 (stereo not drawn) | 75 (≈ 244 µM) | 150 (≈ 488 µM) | 150 (≈ 488 µM) | 300 (≈ 976 µM) | 75 (≈ 244 µM) | 150 (≈ 488 µM) | 150 (≈ 488 µM) | 150 (≈ 488 µM) | 150 (≈ 488 µM) | 75 (≈ 244 µM) | 150 (≈ 488 µM) | 75 (≈ 244 µM) | 300 (≈ 976 µM) | 150 (≈ 488 µM) | 300 (≈ 976 µM) | 300 (≈ 976 µM) | 75 (≈ 244 µM) | 300 (≈ 976 µM) | 150 (≈ 488 µM) | 150 (≈ 488 µM) | MIC [21]: 75 mg/L (≈ 244 µM); MIC [22]: 300 mg/L (≈ 976 µM); MIC [23]: 75 mg/L (≈ 244 µM); MIC [24]: 75 mg/L (≈ 244 µM)
6 | O=C(CCl)N1CCN(CCN2C(=O)C(Cl)C2c2ccccc2)CC1 (stereo not drawn) | 37.5 (≈ 101 µM) | 37.5 (≈ 101 µM) | 75 (≈ 203 µM) | 75 (≈ 203 µM) | 37.5 (≈ 101 µM) | 37.5 (≈ 101 µM) | 75 (≈ 203 µM) | 18.8 (≈ 50.6 µM) | 75 (≈ 203 µM) | 18.8 (≈ 50.6 µM) | 18.8 (≈ 50.6 µM) | 18.8 (≈ 50.6 µM) | 75 (≈ 203 µM) | 18.8 (≈ 50.6 µM) | 37.5 (≈ 101 µM) | 75 (≈ 203 µM) | 37.5 (≈ 101 µM) | 75 (≈ 203 µM) | 18.8 (≈ 50.6 µM) | 75 (≈ 203 µM) | MIC [21]: 37.5 mg/L (≈ 101 µM); MIC [22]: 75 mg/L (≈ 203 µM); MIC [23]: 75 mg/L (≈ 203 µM); MIC [24]: 37.5 mg/L (≈ 101 µM)
7 | O=C1CSC(c2ccccc2)N1CCN1CCNCC1 (stereo not drawn) | 75 (≈ 257 µM) | 18.8 (≈ 64.3 µM) | 75 (≈ 257 µM) | 75 (≈ 257 µM) | 37.5 (≈ 129 µM) | 75 (≈ 257 µM) | 37.5 (≈ 129 µM) | 37.5 (≈ 129 µM) | 37.5 (≈ 129 µM) | 37.5 (≈ 129 µM) | 75 (≈ 257 µM) | 37.5 (≈ 129 µM) | 75 (≈ 257 µM) | 75 (≈ 257 µM) | 75 (≈ 257 µM) | 37.5 (≈ 129 µM) | 37.5 (≈ 129 µM) | 37.5 (≈ 129 µM) | 37.5 (≈ 129 µM) | 37.5 (≈ 129 µM) | MIC [21]: 18.8 mg/L (≈ 64.3 µM); MIC [22]: 75 mg/L (≈ 257 µM); MIC [23]: 37.5 mg/L (≈ 129 µM); MIC [24]: 37.5 mg/L (≈ 129 µM)
